Reference: patent publication US20050054629A1, “Compounds and methods of treating cell proliferative diseases” (priority 2002, published 2005)

Key:
[1] = tested on: cell architecture; experiment: Cell architecture modification, phase contrast; assay type: cell-based; parameters: key: −: no effect of the compound was observed; +: an effect of the compound was observed
[2] = tested on: MCF-7 breast carcinoma; experiment: Cytotoxicity assay (MTT), 6 days; assay type: cell-based; details: Homo sapiens, MCF7, 144 h, 6 days of treatment, read-out: Toxicity 6d (IC 50, μM) MCF7
In short: (§1)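 5.10^3 or 2.10^4 cells/well plated, dosed next day (0, 1, 10, 17.5, 25, 50 μM; DMSO 1%). 6 d exposure → MTT 0.5 mg/ml, 3 h 37° C → DMSO solubilization → A550. IC50 calc., n=3.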

[3] = tested on: MDA-MB-231 breast carcinoma; experiment: Cytotoxicity assay (MTT), 6 days; assay type: cell-based; details: Homo sapiens, MDA-MB-231, 144 h, 6 days of treatment, read-out: Toxicity 6d (IC 50, μM) MDA231
In short: as §1

[4] = tested on: H460 lung carcinoma; experiment: Cytotoxicity assay (MTT), 6 days; assay type: cell-based; details: Homo sapiens, NCI-H460, 144 h, 6 days of treatment, read-out: Toxicity 6d (IC 50, μM) H460
In short: as §1

[5] = tested on: Ras; experiment: Ras-dependant signaling pathway analysis (reporter system); assay type: cell-based; parameters: key: −: no effect of the compound was observed; +: an effect of the compound was observed
Protocol: (§2) The impact of the compounds on Ras and Rac signaling pathways was analysed with two reporter systems described by Imler (Nature 1988) and Lin (Science, 1995) respectively on one hand, and by a colony formation assay in the presence of constitutively activated Ras (RasV12) and Rac (RacV12) on the other hand. For this latter experiment, fifty percent confluent NIH3T3 cells in a 10 cm diameter petri dish were transfected with 0.5 μg pSV2-RasV12 or 0.5 μg pEXV RacV12 plasmids plus 100 ng of pSV2-neomycin plasmid using Lipofectamine-Plus reagent (Invitrogen) according to the manufacturer's instructions. Forty-eight hours later, cells were trypsinised, splitted to ⅓, and incubated in the presence of complete medium supplemented with 400 μg/ml geneticin (Invitrogen) and different doses of compound (1, 10, 17.5, 25 and 50 μM) until emerging resistant clones appear (2-3 weeks). The medium was renewed every 3 days. Colonies with a minimum of 50 cells were counted after staining with Fuschin 2%.

[6] = tested on: Rac; experiment: Rac-dependant signaling pathway analysis (reporter system); assay type: cell-based; parameters: key: −: no effect of the compound was observed; +: an effect of the compound was observed
Protocol: as §2

[7] = tested on: HCT116 colon adenocarcinoma; experiment: Cytotoxicity assay (MTT), 6 days; assay type: cell-based, human; details: Homo sapiens, HCT-116, 144 h, 6 days of treatment, read-out: Toxicity 6d (IC 50, μM) HCT116
In short: as §1

[8] = tested on: NIH3T3; experiment: Cytoskeleton analysis, actin staining (FITC-phalloidin); assay type: cell-based, mouse; details: for Cell architecture modification actin staining (R: ruffles; FC: focal complexes) NIH3T3: 24 h treatment
Protocol: Since major rearrangements of cytoskeleton are observed in tumor cells and since the small GTPases are known to regulate these events, analysis of actin cytoskeleton was performed. Subconfluent cells seeded onto coverslips were treated with different concentration of compound (1, 10, 17.5, 25 and 50 μM) or vehicle for 24 h, before being fixed in 4% formaldehyde for 15 min., permeabilized in 0.2% Triton X100 for 5 minutes and incubated in PowerBlock (Biogenex) for 10 min. Actin filaments were stained with 0.5 μg/ml fluorescein isothiocyanate (FITC)-labelled phalloidin for 1 hour. Analysis was performed using an inverted fluorescent microscope.

[9] = tested on: NIH3T3 cells; experiment: Colony formation assay with constitutively activated Ras (RasV12) and Rac (RacV12); assay type: cell-based, mouse; parameters: key to Colony formation: −: no effect of the compound was observed; +: an effect of the compound was observed
Protocol: as §2

[10] = tested on: MRC-5; experiment: Cytotoxicity assay (MTT), 6 days; assay type: cell-based; details: Homo sapiens, MRC5, 144 h, 6 days of treatment, read-out: Toxicity 6d (IC 50, μM) MRC-5
In short: as §1

[11] = tested on: MDA-MB-231 cells; experiment: Migration assay (Boyden chamber, non-coated filters); assay type: cell-based, human; details: MDA-MB-231, Boyden chamber
Protocol: One day after seeding, 10^6 MDA-MB-231 cells were treated overnight with different concentrations of compounds (1, 10, 17.5, 25 and 50 μM). Cells were collected with Versene (Invitrogen), counted with trypan blue exclusion, rinsed twice in serum-free medium containing 0.1% BSA and resuspended in serum-free medium containing 0.1% BSA plus the appropriate concentration of compound. 10^5 treated cells were placed in the upper chamber. Medium containing 10% of FBS plus the appropriate concentration of compound was placed in the lower chamber as a chemoattractant. The Boyden chamber was incubated 6 hours at 37° C. before the cells were fixed and stained with Diff-Quick (Dade-Berhing). Cells on the upper part of the filters were removed using a cotton swab. Cells on the underside of the filters were visualised and counted under light microscope.
The migration assay was performed the same way, using non-coated filters.

[12] = tested on: MDA-MB-231 cells; experiment: Migration assay (Fluoroblock inserts), Example 32; assay type: cell-based, human; details: 16 hours
Protocol: FIG. 10: Migration of MDA-MB-231 cells in the presence of various concentrations of L651582, and EHT 0823. 5 10^4 MDA-MB-231 cells, resuspended in culture medium with or without Fetal Bovine Serum (FBS), were seeded in the upper Boyden blind well on top of 8 μm pore-sized filters. The ability of cells to migrate through the filter was assayed in the absence or presence of FBS in the lower Boyden well. After incubation at 37° C. for 16 hours, the medium was removed and replaced with calcein containing medium. After labelling, cells were washed and resuspended in HBSS and fluorescence was read in a fluoroskan. Fluorescence values were normalized against the fluorescence obtained for the 1% DMSO control. The data plotted are the means±SEM for 2 wells under the different conditions.
An essential characteristic of malignant cells is their ability to migrate, invade host tissues and to produce metastases. In order to evaluate the capacity of one compound to affect the ability of tumoral cells to migrate, migration assays were performed using highly invasive tumoral cells MDA-MB-231. This assay was performed using Falcon HTS Fluoroblock inserts. Culture medium containing Fetal Bovine Serum (FBS; which is used as a chemoattractant) was added to the plate wells and 2 10^4 MDA-MB-231 cells resuspended in medium without FBS and with 0.1% BSA were added to each insert well. The compound of interest was added to the medium in both the upper and the lower chambers. Plate were incubated for 16 hours at 37° C. Following incubation, the medium was removed from the upper chamber and the entire insert plate was transferred to a second 24-well plate containing 4 μg/ml Calcein-AM in medium containing 0.1% BSA. The plates were incubated for one hour at 37° C., rinsed with Hanks Buffered Saline (HBSS). Fluorescence data were collected using Fluoroskan Ascent FL fluorescence plate reader at an excitation wavelength (Ex) of 485 nm and emission wavelength (Em) of 517 nm. Only those labelled cells that passed through the Matrigel layer and the membrane were detected. Data were analyzed using the GraphPad Prism software.

[13] = tested on: HCT116; experiment: Cell viability assay (MTT), Example 32; assay type: cell-based, human; details: Homo sapiens, HCT-116, 144 h; day 6, 10% FBS
Protocol: FIG. 7: Antiproliferative effect of compounds on HCT116 (top) and MDA-MB-231 (bottom) cell lines measured by MTT viability assay. 2.5 10^3 (HCT116) or 7.5 10^3 (MDA-MB-231) cells were seeded in 48-well plates in growth medium containing 10% FBS, with or without various concentrations of test compounds. Cell cultures were fed every 3 days with the appropriate media. Cell viability was determined on day 6. Data were analyzed and IC50s were calculated from the dose-response curves using GraphPad Prism.
In order to determine one compound effect on cell viability, microculture tetrazolium assay (MTT) was performed as described by Carmichael et al., (1996) with modifications. Four human tumoral cell lines, namely HCT116 colon adenocarcinoma, H460 lung carcinoma, MCF-7 and MDA-MB-231 breast carcinoma cell lines, and 3 immortalized but non tumorigenic cell lines, namely NIH3T3 mouse fibroblasts and human breast-derived MCF10-A and human lung-derived MRC-5 were purchased at ATCC and cultured according to their recommendations. Briefly, 2.5 10^3 to 2 10^4 cells per well were seeded in 48-well plates 24 hours before drug addition. Cells were treated with 0 to 200 μM (11 concentrations) of compound solubilized in DMSO, adjusting the final concentration of DMSO to 1% in the well. Six days after treatment, the medium was replaced by PBS containing 0.5 mg/ml MTT (Sigma) and cells were incubated for 1-3 hours at 37° C. before solubilization of formazan crystals in 100% DMSO. Absorbance was measured using a spectrophotometer at a wavelength of 550 nm. Data was analyzed using the GraphPad Prism software (GraphPad Software, Inc., San Diego, USA), and IC50 (dose leading to 50% cell death) was calculated from the dose-response curves.

[14] = tested on: HCT116 cells; experiment: Anchorage-independent cell growth assay in soft agar, Example 32; assay type: cell-based, human
Protocol: FIG. 8: Effect of the treatment of HCT116 cells with the compounds on the size of the clones grown in soft agar. 5 10^3 cells were seeded in 24-well plates in 0.3% agar-containing medium supplemented with the designated amount of compounds. After 7 days of incubation at 37° C., pictures were taken of each well and were analyzed using the ImageJ image analysis software. In particular, clone size and number were calculated. The data were analyzed using GraphPad Prism, and IC50 was calculated.
In order to evaluate the effect of one compound on the capacity of tumour cells to grow without anchorage, HCT116 cells were seeded in soft agar. In contrast to microplate assays which average the drug's effects over an entire cell population, clonogenic assays offer the possibility of distinguishing cytotoxic agents (i.e., decreased colony number) from cytostatic agents (i.e., decreased colony size without decreased colony number; Murphy M. J. et al., 1996).
Briefly, 5 10^3 HCT116 cells were resuspended in 300 pi of complete medium containing 0.3% soft-agar (Difco) and different concentrations of compound (8 concentrations ranging from 0 to 30 μM). Cells were then poured on a solidified layer of medium containing 0.5% of soft agar plus the compound at the same concentration as in the upper layer. Cells were incubated for 7 days' at 37° C. before pictures of each well were taken using a phase contrast microscope (Nikon) and a digital camera (Nikon Coolpix 990). Pictures were subsequently analyzed using a free image analysis software from the NIH (ImageJ) allowing to determine clones size and number.
Data was analyzed using the GraphPad Prism software, and IC50 (dose leading to a 50% decrease of clone size or number) was calculated from dose-response curves. The ratio IC50 clone size/IC50 clone number was then calculated. When this ratio is equal to 1 (IC50 size=IC50 number), the compound is referred to as “cytotoxic”. When the ratio is close to 0 (IC50 size<<IC50 number), the compound is referred to as “cytostatic” (FIG. 6).

Row | IC50 [13] | IC50 anchorage-independent growth of HCT116 (clone size) in soft agar ([14]; 7 days) | Compound | Cell architecture modification phase contrast [1] | IC50 [2] | IC50 [3] | IC50 [4] | Small GTPases activities Ras [5] | Small GTPases activities Rac [6] | IC50 [7] | general morphology of NIH3T3 cells, as detected by β-actin staining [8] | Cell architecture modification actin staining (R: ruffles; FC: focal complexes) NIH3T3 [8] | Colony formation [9] | IC50 [10] | Migration [11] | inhibition of migration of MDA-MB-231 cells ([12]; 10 μM compound) | inhibition at 50 µM ([12]; Homo sapiens, MDA-MB-231, 50 μM compound) | inhibition of migration of MDA-MB-231 cells ([12]; 50 μM compound) | inhibition at 10 µM ([12]; Homo sapiens, MDA-MB-231, 10 μM compound) | mode of action (cytotoxic vs cytostatic) ([14]; HCT116 soft agar) | ratio IC50 clone size/IC50 clone number ([14]; HCT116 soft agar, 7 days)
1 |  |  | O=c1cc(CO)occ1OCCCCCOc1ccc(Cl)c(Cl)c1 [EH5500, 5-[5-(3,4-Dichlorophenyloxy)pentyloxy]-2-(hydroxymethyl)-4H-pyran-4-one] | + | 35 µM | > 50 µM | 15 µM | − | − | 50 µM | affected | cell destructuration | − |  |  |  |  |  |  |  | 
2 |  |  | O=c1cc(CO)occ1OCCCCCOc1cccc(Cl)c1 [EH10600, 5-[5-(3-Chlorophenyloxy)pentyloxy]-2-(hydroxymethyl)-4H-pyran-4-one] | + | 40 µM | 10 µM | 25 µM | − | − | > 50 µM | affected | cell destructuration | − |  |  |  |  |  |  |  | 
3 |  |  | O=c1cc(CO)occ1OCCCCOc1ccc(Cl)c(Cl)c1 [EH17700, 5-[4-(3,4-Dichlorophenyloxy)butyloxy]-2-(hydroxymethyl)-4H-pyran-4-one] | − | 20 µM | 15 to 20 µM | 15 µM | − | − | 30 µM |  |  | − | > 50 µM | no effect |  |  |  |  |  | 
4 | 1.5 to 4 µM | micromolar range | O=c1cc(COC2CCCCO2)occ1OCCCCCn1ccc2cc(Cl)ccc21 (centres unmarked) [EHT 0823, 5-[5-(5-Chloro-indol-1-yl)-pentyloxy]-2-(tetrahydro-pyran-2-yloxymethyl)-4H-pyran-4-one] |  |  |  |  |  |  |  |  |  |  |  |  | No significant inhibition | 90% |  |  |  | 
5 |  |  | NC(=O)c1nnn(Cc2cc(Cl)c(C(=O)c3ccc(Cl)cc3)c(Cl)c2)c1N [L651582, carboxyamidotriazole, reference compound] |  |  |  |  |  |  |  |  |  |  |  |  |  |  | Complete inhibition | ~40% | cytostatic | 0.3
